In patent publication US20150141411A1, “SUBSTITUTED 3,4-DIHYDRO-2H-PYRIDO[1,2-A]PYRAZINE-1,6-DIONE DERIVATIVES USEFUL FOR THE TREATMENT OF (INTER ALIA) ALZHEIMER'S DISEASE” (Janssen Pharmaceuticals, Inc., priority 2012, published 2015) one finds melting point and IC50 data, which are given here for 32 compounds.

Data set [1] concerns the target T1, γ-secretase (Homo sapiens, UniProt P49768).
T1 construct: endogenous in cells; host or cells: SKNBE2 human neuroblastoma cells (carrying hAPP 695 wild type as substrate)
The experiment in a line: Screening for γ-secretase-modulating activity: Aβtotal in supernatant of SKNBE2 cells carrying hAPP 695 wild type (Alphalisa). To be noted: SKNBE2 human neuroblastoma cells carrying hAPP 695 wild type, overnight incubation, Aβtotal in cell supernatant. Type of data set: cell-based. The method in brief:
(§1)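 SKNBE2 neuroblastoma cells expressing wild-type hAPP 695 plated at 10^4 cells/well in Ultraculture with test compound, incubated overnight at 37° C. Aβ42 (C-terminal/N-terminal antibody pair) and Aβtotal (N-terminal/4G8 pair) in supernatant quantified by AlphaLISA. IC50 from 4-parameter fit of percent of compound-free control.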

The target in data set [2] is T1, γ-secretase. As to the kind of experiment: Screening for γ-secretase-modulating activity: Aβ42 in supernatant of SKNBE2 cells carrying hAPP 695 wild type (Alphalisa). Type of data set: cell-based. To be noted: SKNBE2 human neuroblastoma cells carrying hAPP 695 wild type, overnight incubation, Aβ42 in cell supernatant. The method in brief: as §1
For orientation: In Alpha technology, singlet oxygen from a donor bead excites a nearby acceptor bead.

pIC50: −log10 of the molar value.

As usually defined, the melting point is the temperature, or range, at which the solid turns liquid. By pIC50 is commonly meant the negative decadic logarithm of the IC50, by convention in mol/L. Take `Cc1cn(-c2ccc3n(c2=O)C[C@@H](C)N(CC2(c4ccccc4C)CC2)C3=O)cn1` [compound 20]: the melting point came out at 199.8 °C. The compound also had a pIC50 on γ-secretase [1] of less than 5.00. This compound showed a pIC50 against γ-secretase [2] of 5.81.

For the compound `COc1ccc(CN2CCn3c(ccc(-n4cnc(C)c4)c3=O)C2=O)cc1C(F)(F)F` [compound 69], the melting point worked out at 177 °C. This compound also gave a pIC50 against γ-secretase [1] of less than 5.00. For the same compound, the pIC50 against γ-secretase [2] was 5.99.

On to `Cc1cn(-c2ccc3n(c2=O)CCN(Cc2cccc(C(F)(F)F)c2)C3=O)cn1` [compound 42], for which the melting point was 183.4 °C. This compound also had a pIC50 at γ-secretase [1] of less than 5.00. At γ-secretase [2], this compound showed a pIC50 of 6.13.

On to `Cc1cn(-c2ccc3n(c2=O)CCN(Cc2cccc(C(F)(F)F)c2C)C3=O)cn1` [compound 58], for which the melting point turned out to be 199.4 °C. The compound further showed a pIC50 at γ-secretase [1] of less than 5.00. At γ-secretase [2], the pIC50 was 6.08.

`Cc1cn(-c2ccc3n(c2=O)CCN(Cc2ccc(F)cc2C)C3=O)cn1` [compound 73]: the melting point is 227.4 °C. For the same compound, at γ-secretase [1], the pIC50 was less than 5.00. Moreover, the pIC50 against γ-secretase [2] is 5.59.

In the case of `Cc1cn(-c2ccc3n(c2=O)CCN(CCOCc2ccc(Cl)cc2)C3=O)cn1` [compound 27], the melting point came to 168 °C. For the same compound, on γ-secretase [1], the pIC50 was less than 5.00. Also, the pIC50 against γ-secretase [2] is 6.23.

In turn, `Cc1cn(-c2ccc3n(c2=O)CCN(Cc2cc(OC(C)C)cc(C(F)(F)F)c2)C3=O)cn1` [compound 160] registered a melting point of 171.7 °C. On γ-secretase [1], this compound gave a pIC50 of less than 5.00. The compound further had a pIC50 at γ-secretase [2] of 6.72.

On to `Cc1cn(-c2ccc3n(c2=O)CCN(c2cccc(C(F)(F)F)c2F)C3=O)cn1` [compound 55], for which the melting point came out at 227.5 °C. In addition, the negative logarithm of the IC50 (pIC50) at γ-secretase [1] was less than 5.00. Also, the negative-log IC50 (pIC50) on γ-secretase [2] is 5.42.

`Cc1cn(-c2ccc3n(c2=O)CCN(C(C)c2ccc(Cl)c(Cl)c2)C3=O)cn1` (single isomer, unassigned) [9a] had a melting point of 206.8 °C. Moreover, the pIC50 on γ-secretase [1] was less than 5.00. This compound showed a pIC50 at γ-secretase [2] of 5.35.

The compound `COc1ccc(Cl)cc1CCN1C(=O)c2ccc(-n3cnc(C)c3)c(=O)n2C[C@H]1C` [compound 233] came in with a melting point of 193 °C. Moreover, the pIC50 against γ-secretase [1] is less than 5.00. In addition, the pIC50 at γ-secretase [2] was 6.59.

As to `Cc1cn(-c2ccc3n(c2=O)CCN(CCC2COc4ccccc4O2)C3=O)cn1` (stereo not drawn) [compound 103], the melting point stood at 176.8 °C. The compound also showed a pIC50 on γ-secretase [1] of less than 5.00. At γ-secretase [2], the pIC50 is 5.61.

`Cc1cn(-c2ccc3n(c2=O)CCN(Cc2cccc(N4CCOCC4)c2)C3=O)cn1` [compound 95]: the melting point came to 181.6 °C. For the same compound, the pIC50 against γ-secretase [1] is less than 5.00. This compound also had a pIC50 against γ-secretase [2] of 5.12.

For `Cc1cn(-c2ccc3n(c2=O)CCN(Cc2ccc4c(c2)OCCCO4)C3=O)cn1` [compound 93], the melting point was 192.2 °C. Also, the pIC50 on γ-secretase [1] was less than 5.00. The pIC50 against γ-secretase [2] was 5.17.

Compound `Cc1cn(-c2ccc3n(c2=O)CCN(C(C)c2cccc(Cl)c2Cl)C3=O)cn1` (single isomer, unassigned) [10b] showed a melting point of 206.4 °C. Also, the pIC50 against γ-secretase [1] was less than 5.00. Besides, the pIC50 at γ-secretase [2] is 5.18.

Take `Cc1cn(-c2ccc3n(c2=O)C[C@@H](C)N(Cc2cn(C)c4cc(C(F)(F)F)ccc24)C3=O)cn1` [compound 228]: the melting point worked out at 161 °C. The same compound showed a pIC50 on γ-secretase [1] of less than 5.00. At γ-secretase [2], the negative logarithm of the IC50 (pIC50) is 7.30.

The compound `Cc1cn(-c2ccc3n(c2=O)CCN(C(C)c2cccc(C(F)(F)F)c2)C3=O)cn1` (single isomer, unassigned) [11a] had a melting point of 181.1 °C. The compound also gave a pIC50 at γ-secretase [1] of less than 5.00. For the same compound, at γ-secretase [2], the pIC50 was 6.18.

For `Cc1cn(-c2ccc3n(c2=O)C[C@@H](C)N(Cc2ccc4c(c2)OC(F)(F)O4)C3=O)cn1` [compound 113], the melting point worked out at 136.1 °C. This compound also had a pIC50 against γ-secretase [1] of less than 5.00. Besides, on γ-secretase [2], the pIC50 was 6.40.

In turn, `Cc1cn(-c2ccc3n(c2=O)CCN(C(C)c2cccc(C(F)(F)F)c2)C3=O)cn1` (single isomer, unassigned) [11b] came in with a melting point of 181 °C. Moreover, the negative logarithm of the IC50 (pIC50) against γ-secretase [1] was less than 5.00. The compound further showed a pIC50 against γ-secretase [2] of 5.11.

`Cc1cn(-c2ccc3n(c2=O)CCN(Cc2cccc(C(F)(F)F)c2F)C3=O)cn1` [compound 56] registered a melting point of 197.6 °C. Besides, the pIC50 on γ-secretase [1] was less than 5.00. In addition, the pIC50 on γ-secretase [2] is 5.77.

On to `Cc1cn(-c2ccc3n(c2=O)CC(C)N(C(C)c2cn(C)c4c(F)cc(Cl)cc24)C3=O)cn1` (single isomer, unassigned) [compound 223], for which the melting point came out at 243 °C. The compound also gave a pIC50 on γ-secretase [1] of 5.18. This compound also gave a pIC50 against γ-secretase [2] of 6.66.

In the case of `Cc1cn(-c2ccc3n(c2=O)CCN(c2ccccc2C)C3=O)cn1` [compound 102], the melting point was 222.2 °C. The negative-log IC50 (pIC50) on γ-secretase [1] is less than 5.00. The pIC50 against γ-secretase [2] was less than 5.00.

Consider `Cc1cn(-c2ccc3n(c2=O)CCN(Cc2ccc(Cl)c(Cl)c2)C3=O)cn1` [compound 38], for which the melting point stood at 190.8 °C. On γ-secretase [1], this compound gave a pIC50 of 5.44. For the same compound, the pIC50 against γ-secretase [2] is 6.48.

The compound `Cc1cn(-c2ccc3n(c2=O)C[C@@H](C)N(CCc2cc(C(F)(F)F)ccc2F)C3=O)cn1` [compound 232] registered a melting point of 148 °C. At γ-secretase [1], the pIC50 was less than 5.00. This compound had a pIC50 against γ-secretase [2] of 6.68.

On to `Cc1cncn1-c1ccc2n(c1=O)CCN(Cc1ccccc1)C2=O` [compound 89], for which the melting point is 146.5 °C. On γ-secretase [1], this compound showed a pIC50 of less than 5.00. Moreover, the pIC50 at γ-secretase [2] is less than 5.00.

Take `Cc1cn(-c2c(Br)cc3n(c2=O)C[C@@H](C)N(Cc2cc(C(F)(F)F)cc(C(F)(F)F)c2)C3=O)cn1` [compound 157]: the melting point came out at 147.7 °C. On γ-secretase [1], this compound gave a pIC50 of 5.06. The same compound gave a pIC50 on γ-secretase [2] of 5.69.

As for `Cc1cn(-c2ccc3n(c2=O)C[C@@H](C)N(Cc2ccccc2C)C3=O)cn1` [compound 21], the melting point was found to be 163 °C. In addition, the pIC50 at γ-secretase [1] is less than 5.00. Moreover, the pIC50 against γ-secretase [2] is 5.71.

Consider `COc1cccc(CN2CCn3c(ccc(-n4cnc(C)n4)c3=O)C2=O)c1` [compound 119], for which the melting point was 151.2 °C. Besides, on γ-secretase [1], the pIC50 is less than 5.00. This compound also gave a pIC50 against γ-secretase [2] of less than 5.00.

On to `Cc1ncn(-c2ccc3n(c2=O)CC(C)N(Cc2cc(C(F)(F)F)cc(C(F)(F)F)c2)C3=O)n1` (stereo not drawn) [compound 155], for which the melting point was found to be 160.9 °C. Further, the negative-log IC50 (pIC50) at γ-secretase [1] was less than 5.00. Besides, the pIC50 against γ-secretase [2] was 6.29.

For the compound `Cc1cn(-c2ccc3n(c2=O)CCN(Cc2ccccc2N2CCCCC2)C3=O)cn1` [compound 100], the melting point stood at 167.4 °C. At γ-secretase [1], this compound gave a pIC50 of less than 5.00. The pIC50 on γ-secretase [2] is 6.12.

As for `Cc1cn(-c2ccc3n(c2=O)C[C@@H](C)N(Cc2ccc(C(F)(F)F)cc2)C3=O)cn1` [compound 43], the melting point stood at 164.9 °C. The pIC50 against γ-secretase [1] was less than 5.00. Moreover, the pIC50 at γ-secretase [2] was 6.21.

Consider `Cc1cn(-c2ccc3n(c2=O)CCN(Cc2cccc(OC(F)(F)F)c2)C3=O)cn1` [compound 74], for which the melting point was determined as 163.4 °C. The pIC50 against γ-secretase [1] is less than 5.00. In addition, the pIC50 at γ-secretase [2] was 6.42.

In turn, `Cc1cn(-c2ccc3n(c2=O)CCN(CC2(c4ccc(Cl)cc4)CC2)C3=O)cn1` [compound 29] gave a melting point of 227.1 °C. Moreover, the pIC50 against γ-secretase [1] was less than 5.00. For the same compound, on γ-secretase [2], the negative-log IC50 (pIC50) is 6.57.
